Values of other authors in patent US8377979B2, “Pharmaceutical formulation containing phenytoin sodium and magnesium stearate” (Taro Pharmaceuticals North America, Inc., priority 2005, dated 2013).

What was measured:
[1] = gastrointestinal pH range of 1 to 8
[2] = man, oral administration

- solubility [1]: practically insoluble
- plasma half-life, average [2]: 22 h
SMILES: O=C1NC(=O)C(c2ccccc2)(c2ccccc2)N1 [phenytoin, 5,5-diphenyl-2,4-imidazolidinedione]
